These results are taken from BindingDB's records for doi:10.7270/Q2B56H72 (Nmmlsc, 2011).

The test deals with T1, Beta-adrenergic receptor kinase 1 (Homo sapiens, UniProt P25098).
T1 sequence (P25098 whole entry): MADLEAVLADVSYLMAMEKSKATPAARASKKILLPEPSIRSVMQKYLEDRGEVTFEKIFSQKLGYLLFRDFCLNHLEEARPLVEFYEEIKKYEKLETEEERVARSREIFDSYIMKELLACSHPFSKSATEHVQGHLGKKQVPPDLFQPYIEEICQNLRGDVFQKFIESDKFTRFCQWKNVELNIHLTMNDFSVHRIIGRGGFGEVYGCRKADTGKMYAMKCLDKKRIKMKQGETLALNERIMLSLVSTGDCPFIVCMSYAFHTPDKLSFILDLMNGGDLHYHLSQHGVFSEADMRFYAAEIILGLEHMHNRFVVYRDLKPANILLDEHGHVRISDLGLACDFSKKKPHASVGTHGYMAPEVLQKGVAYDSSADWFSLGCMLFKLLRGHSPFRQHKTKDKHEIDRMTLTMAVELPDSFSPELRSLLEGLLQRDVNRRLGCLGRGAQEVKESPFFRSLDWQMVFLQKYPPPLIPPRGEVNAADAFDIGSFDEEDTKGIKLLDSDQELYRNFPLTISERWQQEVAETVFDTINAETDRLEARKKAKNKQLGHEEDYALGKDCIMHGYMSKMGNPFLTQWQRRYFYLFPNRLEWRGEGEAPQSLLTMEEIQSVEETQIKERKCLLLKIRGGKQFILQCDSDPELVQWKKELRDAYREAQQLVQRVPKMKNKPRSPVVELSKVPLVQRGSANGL
The test can be described thus: aptamer displacement from bead-bound GRK2 – biochemical, cherry pick 1, bead flow cytometry, dose response (AID 504500). On the technique in general: Flow cytometry measures light scatter and fluorescence of single cells or particles in a stream.

As usually defined, the EC50 is the concentration needed to bring the measured effect to its halfway point. Lower therefore signals higher potency in that assay. For the compound `C=c1[nH]n(-c2cccc(C(=O)O)c2)c(=O)c1=CC=Cc1ccco1` [SMR000113614], a half-maximal response (EC50) required 14.8 µM.
